“Also recorded” adds a separate entry of the source. Like-named read-outs stand apart in the source and are kept apart here.
Legend:
[1] = system: Candida species (including albicans, glabrata, and tropicalis), as well as other opportunistic fungi; conditions: in vitro and in vivo studies; cited from earlier work
[2] = Posaconazole pharmacokinetics in bone marrow transplant (BMT) patients, 200 mg q6h for up to 25 days; assay type: in vivo, human
Description: The exposures in the fasted healthy volunteers were confirmed in a study of posaconazole pharmacokinetics in bone marrow transplant (BMT) patients.
Upon extrapolation of model parameters to multiple dosing, the population mean AUC(0-24 hr) value following oral administration of 200 mg of posaconazole four times a day, preferably q 6 hr was estimated to be 12.4 mcg·hr/mL, representing an average plasma concentration of 0.5 mcg/mL. These estimates, based on data from healthy fasted volunteers, are in close agreement with pharmacokinetic data obtained from a study of patients undergoing high-dose chemotherapy and a bone marrow transplant who were orally administered posaconazole 200 mg q6 h for up to 25 days. […] These studies combined with other data form the basis for posaconazole dosing regimens in the clinical efficacy trials for posaconazole.

[3] = Open-label 3-way crossover clinical pharmacology study: plasma posaconazole pharmacokinetics in fasted healthy subjects (observed values and one-compartment model); assay type: in vivo, human; conditions: for bioavailability / Tmax / Cmax / Mean Cmin (SD) 48 hours after the initial dose / Increase in bioavailability vs regimen A / Change of estimated AUC(I) relative to regimen A: fasted; for bioavailability: model estimate (SE); for AUC(0-t): read-out: Steady-state AUC(0-24 hr); for Cmax: read-out: Mean Cmax (SD)
Excerpt: Men and women, 18 to 45 years of age were recruited for the clinical pharmacology study. Subjects were required to be of normal body weight (within 15% of ideal body weight) and generally in good health. Inclusion criteria included normal electrocardiogram (ECG) and laboratory test results, along with negative drug and pregnancy screens; nonlactating women of childbearing potential were required to use a barrier method of contraception during the study. Exclusion criteria included substance abuse or significant food or drug allergy, donation of blood or use of an investigational drug during the previous 90 days, use of any prescription or over-the-counter drugs other than acetaminophen in the previous 2 weeks, or use of alcohol during the previous 48 hours. Also excluded were subjects with a positive HIV, hepatitis B, or hepatitis C test, as were subjects with is a clinically significant systemic infection during the previous 4 weeks. Subjects who smoked ≧10 cigarettes daily were also excluded. This was an open-label, 3-way crossover study. Subjects who met the entry criteria were confined to the study center at least 12 hours prior to dosing and 48 hours after each dosing regimen. Subjects were discharged from the study site for a 1-week washout period between each arm of the study. Following an overnight fast, each subject received posaconazole as an oral suspension (40 mg/mL), using one of 3 dosing regimens: a single dose of 800 mg (regimen A); 2 doses of 400 mg given 12 hours apart (regimen B); or 4 doses of 200 mg given 6 hours apart (regimen C). Subjects were randomly assigned using a computer-generated random code to 1 of 6 treatment schedules (ABC, ACB, BAC, BCA, CAB, CBA). The oral posaconazole suspension was manufactured and supplied by Schering-Plough Research Institute, Kenilworth, N.J., USA. After dosing with an oral dosing syringe, the oral cavity was inspected to ensure that the subject had swallowed the suspension. Subjects remained fasted for 24 hours after the initial dose. During the first 14 hours, water was provided ad libitum and subjects received IV 1,400 mL D5W/0.5 normal saline at approximately 100 mL/hr as a calorie and fluid source. For regimen A, B, and C, blood samples were collected in heparin-containing tubes at baseline (0 hr) and at 2, 4, 5, 6, 8, 10, 12, 16, 24, and 48 hours after the first dose. For regimen B, blood samples were additionally collected at 14, 17, 18, 20, and 22 hours after the first dose. For regimen C, additional blood samples were collected at 11, 14, 17, 18, 20, 22, 23, 26, 28, and 36 hours after the first dose. Each sample was centrifuged within 15 minutes after collection for 10 minutes at 4° C. and 1,500 g. The resultant plasma was frozen (−20° C.) until assayed. Plasma posaconazole concentrations were quantified using a validated high-performance liquid chromatographic (HPLC) assay with a lower limit of quantitation (LOQ) of 5 ng/mL and a linear range of 5.0 to 5000 ng/mL. The observed values were the maximum plasma concentration (Cmax), time of maximum plasma concentration (Tmax), and the trough plasma concentration at 48 hours after the initial dose of posaconazole (Cmin). Based on previous experience in modeling concentration-time posaconazole data and goodness of fit criteria, a one-compartment oral model with a first-order rate of absorption and first-order rate of elimination was used. The intra-subject error was assumed to be additive, defined as, where Ci,j(t) and Gi,j(t) were the measured and predicted concentrations, respectively, for the j^th subject at time t under the i^th regimen. The predicted concentrations Gi,j(t) following treatments B and C were calculated using the principle of superpositioning, with a lag time equal to the dosing interval (B: 12 hours; C: 6 hours). The error term εi,j(t) was assumed to be N(0, σ^2 ε). Differences in exposure following the three dosage regimens were explored by allowing the bioavailability fraction (F) to differ between regimens. […]

[4] = Safety and tolerability in the 3-way crossover study (adverse events, vital signs, ECGs, laboratory tests); assay type: in vivo, human
Description: Physical examinations, vital signs, ECGs, and clinical laboratory tests were conducted at screening and at the end of the study (48 hours after the final dosing regimen). Treatment-emergent adverse events were recorded throughout the study. In addition, vital signs were evaluated prior to drug administration and at 24 and 48 hours after the first dose of each regimen.

[5] = single daily dose; cited from earlier work
[6] = given with food, rising single dose; cited from earlier work
[7] = 200 mg four times a day, model extrapolated to multiple dosing, healthy fasted volunteers

For `CC[C@@H]([C@H](C)O)n1ncn(-c2ccc(N3CCN(c4ccc(OC[C@@H]5CO[C@@](Cn6cncn6)(c6ccc(F)cc6F)C5)cc4)CC3)cc2)c1=O` [posaconazole], the Antifungal activity [1] is listed as “good activity”, the “Average steady-state plasma concentration” value ([2]; 200 mg q6h for up to 25 days, high-dose chemotherapy and bone marrow transplant patients) is listed as 0.428 µg/mL and the AUC ([2]; human, plasma, oral, 200 mg QID, BMT patients, read-out: AUC (exposure)) is listed as roughly 11000 ng·h/mL. The AUC(0-t) ([2]; human, plasma, oral, 200 mg q6h for up to 25 days, high-dose chemotherapy and bone marrow transplant patients, read-out: AUC(0-24 hr) at steady state) was 10600 ng·h/mL, the “Average posaconazole plasma concentration” value ([3]; 200 mg QID oral) was “greater than 500 ng/mL” and the Average plasma concentration [3, 7] was 0.5 µg/mL. The “Population mean AUC(0-24 hr)” value [3, 7] was 12400 ng·h/mL, the “Average posaconazole plasma concentration” value ([3]; 400 mg BID oral) was “greater than 300 ng/mL” and the “Absorption constant, Ka, estimate” value ([3]; Table 1, one-compartment model) was 0.197 h⁻¹. For the same compound, the “Elimination constant, Ke, estimate” value ([3]; Table 1, one-compartment model) was 0.045 h⁻¹, the bioavailability ([3]; both sexes, human, plasma, oral, 200 mg QID vs 800 mg QD, read-out: Bioavailability fraction F3, regimen C relative to regimen A) was 320 ± 70% and the Tmax ([3]; both sexes, human, plasma, oral, 200 mg, regimen C: 200 mg every 6 h, read-out: Mean Tmax (SD) after the initial dose) was 24.2 h. It also gave a Tmax ([3]; both sexes, human, plasma, oral, 200 mg, regimen C: 200 mg every 6 h, read-out: Tmax after the final dose) of 6.2 h, a bioavailability ([3]; both sexes, human, plasma, oral, 400 mg BID vs 800 mg QD, read-out: Bioavailability fraction F2, regimen B relative to regimen A) of 198 ± 35% and a Tmax ([3]; both sexes, human, plasma, oral, 400 mg, regimen B: 400 mg every 12 h, read-out: Mean Tmax (SD) after the initial dose) of 16.6 h. It also gave a Tmax ([3]; both sexes, human, plasma, oral, 400 mg, regimen B: 400 mg every 12 h, read-out: Tmax after the final dose) of 4.6 h, a Tmax ([3]; both sexes, human, plasma, oral, 800 mg, regimen A: 800 mg single dose, read-out: Mean Tmax (SD) after the initial dose) of 7.8 h and a Tmax ([3]; both sexes, human, plasma, oral, 800 mg, regimen A: 800 mg single dose, read-out: Tmax after the final dose) of 7.8 h. The half-life ([3]; both sexes, human, plasma, oral, from absorption rate constant, fasting conditions, read-out: Estimated absorption half-life (converted)) was 3.5 h, the half-life ([3]; both sexes, human, plasma, oral, from elimination rate constant, read-out: Estimated terminal elimination half-life (converted)) was 15 h and the AUC ([3]; both sexes, human, plasma, oral, 200 mg QID, fasted healthy subjects, read-out: AUC (exposure)) was roughly 12000 ng·h/mL. It also gave a Vd/F ([3]; both sexes, human, plasma, oral, one-compartment model, read-out: V/F1 (volume of distribution) estimate) of 4580 L, an AUC(0-t) ([3]; both sexes, human, plasma, oral, regimen A 800 mg QD, model extrapolated to multiple dosing) of 3900 ng·h/mL and an AUC(0-t) ([3]; both sexes, human, plasma, oral, regimen B 400 mg BID, model extrapolated to multiple dosing) of 7700 ng·h/mL. The Cmax ([3]; both sexes, human, plasma, oral, regimen B: 400 mg every 12 h (2 doses)) was 225 ng/mL, the AUC(0-t) ([3]; both sexes, human, plasma, oral, regimen C 200 mg QID, model extrapolated to multiple dosing) was 12400 ng·h/mL and the Cmax ([3]; both sexes, human, plasma, oral, regimen C: 200 mg every 6 h (4 doses)) was 405 ng/mL. The Cmax ([3]; both sexes, human, plasma, regimen A: 800 mg single oral dose) was 137 ng/mL, the “Dose at which oral absorption is saturable” value ([3]; fasted subjects, suggested by concentration-time curves) was 200 mg and the Elimination rate constant ([3]; one-compartment model, all regimens) was 0.045 h⁻¹. The Absorption rate constant ([3]; one-compartment model, fasting conditions, all regimens) was 0.197 h⁻¹, the “F1 (Regimen A) bioavailability fraction” value ([3]; reference, fixed equal to 1, 800 mg single dose) was 1.0 and the “Estimated steady-state average concentration” value ([3]; regimen A 800 mg QD, model extrapolated to multiple dosing) was 162 ng/mL. The “Mean Cmin (SD) 48 hours after the initial dose” value (shortened to “Mean Cmin (SD) 48 hours”) ([3]; regimen A: 800 mg single dose) was 50 (+/−26) ng/mL, the “Increase in bioavailability vs regimen A” value ([3]; regimen B 400 mg BID vs 800 mg single dose) was 98% and the “Estimated steady-state average concentration” value ([3]; regimen B 400 mg BID, model extrapolated to multiple dosing) was 320 ng/mL. The “Change of estimated AUC(I) relative to regimen A” value ([3]; regimen B 400 mg every 12 h) was “doubled”, the “Mean Cmin (SD) 48 hours” value ([3]; regimen B: 400 mg every 12 h) was 96 (+/−46) ng/mL and the “Increase in bioavailability vs regimen A” value ([3]; regimen C 200 mg QID vs 800 mg single dose) was 220%. For the same compound, the “Estimated steady-state average concentration” value ([3]; regimen C 200 mg QID, model extrapolated to multiple dosing) was 517 ng/mL, the “Change of estimated AUC(I) relative to regimen A” value ([3]; regimen C 200 mg every 6 h) was “tripled” and the “Mean Cmin (SD) 48 hours” value ([3]; regimen C: 200 mg every 6 h) was 189 (+/−135) ng/mL. The “Subjects reporting at least 1 adverse event” value ([4]; 18 subjects, all regimens) was 33%, the “Changes in vital signs, physical examinations, laboratory values, ECGs” value ([4]; all regimens) was “no clinically significant changes; also recorded: unchanged relative to baseline” and the “Intensity of adverse events” value ([4]; all regimens) was “mild in intensity”. For the same compound, the “Subjects reporting chest pain” value ([4]; regimen C) was 11%, the Subjects reporting headache ([4]; regimens A and B) was 11% and the Safety and tolerability ([4]; total daily dose 800 mg, regardless of dosing regimen) was “safe and well tolerated”. The “Increase in oral bioavailability with a high fat meal compared to the fasted state” value [5] was “approximately 4 fold” and the “Doses at which absorption saturated” value [6] was “above 800 mg”.

— US20040058974A1, “Treating fungal infections” (SCHERING CORPORATION, priority 2002, published 2004)
